Assay results reported in patent US6339062B1, “Retroinverso polypeptides that mimic or inhibit thrombospondin activity” (Inkine Pharmaceutical Company, Inc., priority 1998, dated 2002).
Marks after values point to notes of the source that are not given here. Where no end group is shown, it is not given here. [ ]: non-standard residue; d: D form. The star is where a group is joined. Acm = CC(=O)NC*

Tests used:
[1] = tested on: human MDA-MB-231 breast carcinoma cells; assay: Athymic model of human tumor progression, peptide experiments (Example 24); type: in vivo, athymic mice
Experimental: To further evaluate the anti-metastatic properties of the Cys-Ser-Val-Thr-Cys-Gly (SEQ ID NO: 1) peptide, we measured the effect of peptide and antibody against the Cys-Ser-Val-Thr-Cys-Gly (SEQ ID NO: 1) receptor in an athymic model of human tumor progression. In this model, human MDA-MB-231 breast carcinoma cells were injected intraperitoneally in athymic mice. Animals were then treated with either peptide or receptor IgG for three weeks after which the extent of lung and liver metastasis is determined.
For the peptide experiments, eighteen mice were inoculated with MDA-MB-231 human breast cancer cells. After 72 hours, mice were randomized to treatment with every-other-day intraperitoneal injections of saline, scrambled peptide, or a Cys-Ser-Val-Thr-Cys-Gly (SEQ ID NO: 1) peptide for 20 days. One mouse treated with the Cys-Ser-Val-Thr-Cys-Gly (SEQ ID NO: 1) peptide expired after traumatic injection. Mice were sacrificed at 21 days. The peritoneal cavity was examined grossly for primary tumor implantation. The liver and lungs were examined histologically for micrometastases. Statistical analysis was performed by Chi-square analysis.

[2] = tested on: MMP-9 production in BAE cells; assay: TSP-1-stimulated endothelial MMP-9 production (Example 27); type: cell-based
Experimental: BAE cells were treated with TSP-1 as described in Example 27. MMP-9 levels were quantitated from densitometry of the zymograms prepared from the BAE cell conditioned media. The control was 15 μg/ml TSP-1. All other treatments were performed in the presence of 15 μg/ml TSP-1.

[3] = tested on: mouse B16-F10 melanoma cells; assay: Direct adhesion to dried peptide (Example 31); type: cell-based; settings: 10 μg of each peptide; one hour; FIG. 20
Experimental: Peptide effect on direct adhesion was tested by drying 10 μg of each peptide on the bottom of a 96well microtiter plate. Plates were blocked with BSA. Mouse B16-F10 melanoma cells (50,000) were plated in each well and allowed to attach for one hour. Non-adherent cells were aspirated out, plates rinsed, and adherent cells were fixed, stained, and counted. The error bars represent the standard deviation.

washed human platelets = assay: Collagen-induced platelet aggregation (Examples 9, 10); type: cell-based; settings: 5 μg/ml collagen; various concentrations; FIG. 10
Experimental: Washed human platelets were suspended in HEPES-buffered saline, containing 5 mM glucose and 350 μg/ml BSA. 0.5 ml aliquots of platelets were aggregated by stirring with 5 μg/ml collagen in the presence of 500 μg/ml of various peptides. Aggregation was measured at 37° C. as decrease in optical absorbance vs. time in a Chrono-log aggregometer and is shown in FIG. 9. 100% aggregation was defined as the maximal decrease in absorbance measured in the absence of peptide. % of control was calculated as the decrease in absorbance measured in the presence of peptide divided by the decrease in absorbance measured in the absence of peptide times 100. Peptides are designated under each bar graph by their amino acid sequence represented using the one letter amino acid code.
Washed human platelets were suspended in HEPES-buffered saline, containing S mM glucose and 350 μg/ml BSA. […] Aggregation was measured at 37° C. as decrease in optical absorbance vs. time in a chrono-log aggregometer and is shown in FIG. 10. 100%; aggregation was defined as the maximal decrease in absorbance measured in the absence of peptide. % of control was calculated as the decrease in absorbance measured in the presence of peptide divided by the decrease in absorbance measured in the absence of peptide times 100.

rat aorta = assay: Angiogenesis in serum-free collagen gel culture of rat aorta (Example 28); type: cell-based; settings: compared to untreated control or scrambled peptide control; FIG. 17
Text: Error bars=SEM. Photo-micrograph (4× magnification) of a representative aortic ring culture treated either with Cys-Ser-Val-Thr-Cys-Gly (SEQ ID NO: 1) or Val-Cys-Thr-Gly-Ser-Cys (SEQ ID NO: 7) (FIG. 17B). The Cys-Ser-Val-Thr-Cys-Gly (SEQ ID NO: 1)-treated culture has fewer capillary outgrowths than the Val-Cys-Thr-Gly-Ser-Cys (SEQ ID NO: 7) scrambled peptide control.

[4] = tested on: mouse B16-F10 melanoma cells; assay: Melanoma lung metastasis, one bolus i.v. or i.p. (Example 22); type: in vivo; settings: for blocking activity in metastasis and the other assays, peptide versus blocked analogue: mouse, in vivo
Experimental: One bolus injection of Cys-(Acm)-Ser-Val-Thr-Cys-(Acm)-Gly (SEQ ID NO: 6) peptide (1 mg/mouse intravenously or 5 mg/mouse intraperitoneally ) was administered followed by intravenous injection of mouse B16-F10 melanoma cells (100,000). Each treatment group consisted of 5 animals. After 10 days animals were sacrificed and lung tumors counted. […] Error bars represent the standard error of the mean. P values between control and peptide-treated groups <0.001.

[5] = tested on: mouse B16-F10 melanoma cells; assay: Melanoma tumor cell metastasis, peptide i.v. (Example 21); type: in vivo, mice; settings: 1 mg peptide i.v. shortly before or after tumor implantation; two weeks; FIG. 12
Text: Mice were sacrificed two weeks later and lung tumors counted. Treatment groups consisted of five animals. The photograph of FIG. 12 depicts three lungs from each treatment group. The black spots are melanoma tumors. All metastasis experiments were repeated 2-3 times showing qualitatively similar results depicted in the bar graph of FIG. 12.

[6] = tested on: mouse B16-F10 melanoma cells; assay: Tumor cell metastasis, one i.p. injection of peptide (Example 32); type: in vivo; settings: 1 mg peptide i.p. once; 14 days; FIG. 21
Experimental: Mouse B16-F10 melanoma cells (75,000 ) were injected intravenously and was immediately followed by one intraperitoneal injection of 1 mg of peptide. Six animals were treated with each peptide. Animals were sacrificed 14 days later and lung colonies counted. The data shown in FIG. 21 represents the mean of lung colonies and the error bars represent the standard error of the mean. The peptides, d-Gly-Cys-(Acm)-Thr-Val-Ser-Cys-(Acm) (retroinverso) (SEQ ID NO: 35), and l-Cys-(Acm)-Ser-Val-Thr-Cys-(Acm)-Gly (SEQ ID NO: 6) inhibited metastasis by more than 80%, whereas d-Cys-Ser-Val-Thr-Cys-Gly (SEQ ID NO: 40) had no effect.

[7] = tested on: mouse B16-F10 melanoma cells; assay: Boyden chamber assay, TSP-1 mediated invasion of collagen (Examples 29, 30); type: cell-based; settings: for dose-dependent effect on melanoma cell invasion: FIG. 19
Experimental: Cell invasion was investigated by the Boyden Chamber Invasion Assay using the modified Boyden chamber. T. Frandsen et al., Fibrinolysis, 6: 71-76 (1992). Polycarbonate filters, 12 μm pore size, e.g., Millicell, Millipore Corporation, Bedford, Ma, were coated with 100 μg Type IV collagen (1 mg/ml 60% EtOH) and dried overnight at 25° C. Blind-well Boyden chambers are filled with 600 μl of serum-free media containing 0.1% BSA in the lower compartment, and the coated filters will be mounted in the chamber. Approximately 50,000 cells (tested to be greater than 95% viable) suspended in 400 μl of the same media will be placed in the upper chamber of the apparatus and allowed to settle onto the collagen-coated membrane. Varying concentrations of TSP-1 (0-150 nM) will be placed in the lower compartment and any neutralizing antibodies as well as peptides will be placed in the upper chamber. After an incubation period of about 3 to 6 hours at 37° C., the cells on the upper surface of the filter will be removed with a cotton swab. The filters are then fixed in 3% glutaraldehyde solution and stained with 0.5% crystal violet solution. Invasive cells adhering to the under-surface of the filter are counted using a phase contrast microscope (400×).
Using this assay, mouse B16-F10 melanoma cells (50,000) were plated on the collagen-coated disk of the Boyden chamber apparatus. The top chamber contained melanoma cells in the presence of 500 μg/ml of the TSP-1 derived peptide and the bottom chamber contained 20 μg/ml TSP-1. After 6 hours, cells traversing the collagen were counted as cells attached to the underside of the collagen-coated disk. Five representative fields per chamber in duplicate were counted. The data shown in FIG. 18 represents the average per field and the error bars represent the standard deviation. The scrambled peptide, Val-Cys-Thr-Gly-Ser-Cys (SEQ ID NO: 7), the irrelevant peptide, Ala-Ser-Val-Thr-Ala-Arg (SEQ ID NO: 38), buffer, and the d-amino acid Cys-Ser-Val-Thr-Cys-Gly (SEQ ID NO: 40) had no effect on invasion.
The experiments were performed as described for Example 29. […] In contrast, d-Cys-Ser-Val-Thr-Cys-Gly (SEQ ID NO: 40) had no effect.

[8] = tested on: mouse B16-F10 melanoma cells; assay: Melanoma lung metastasis, daily i.p. from day 3 after implantation (Example 23); type: in vivo, mice; settings: daily i.p. for 10 days from day 3, FIG. 14
Experimental: Mice were intravenously injected with mouse B16-F10 melanoma cells (75,000). After 3 days, each mouse was treated daily by intraperitoneal injection with either PBS, 0.01 mg, or 1 mg of peptide for 10 days. Treatment groups consisted of 5 mice. After 10 days animals were sacrificed and lung tumors counted. Error bars represent the standard error of the mean. p<0.001 between control- and peptide-treated groups.

[9] = Stability toward oxidation; type: physicochemical; settings: compared with unblocked peptide
[10] = i.p. every other day for 20 days, sacrificed at 21 days

Substance	in vivo breast cancer progression; metastases in the two organs examined ([1]; compared with saline or scrambled peptide groups)	intraperitoneal tumors ([1]; gross examination at 21 days)	Liver: no. of animals with metastases/total no. of animals [1, 10]	Lungs: no. of animals with metastases/total no. of animals [1, 10]	% inhibition (MMP-9) ([2]; 0.20 mM, with 15 μg/ml TSP-1)	Relative MMP-9 Levels ([2]; 0.20 mM, with 15 μg/ml TSP-1)	inhibited MMP-9 production ([2]; at high doses)	adhesion of cells to dried peptide [3]	collagen-induced platelet aggregation, dose response (washed human platelets)	angiogenesis (capillary outgrowths) (rat aorta)	blocking activity in metastasis and the other assays, peptide versus blocked analogue [4]	melanoma cell metastasis (lung tumors) [5]	inhibition of metastasis (lung colonies) [6]	inhibition of TSP-1 mediated invasion ([7]; 500 μg/ml peptide top chamber, 20 μg/ml TSP-1 bottom chamber, 6 hours, FIG. 18)	dose-dependent effect on melanoma cell invasion [7]	fewer lung metastasis as compared to saline or scrambled peptide controls ([4]; one bolus, 1 mg/mouse i.v. or 5 mg/mouse i.p., 10 days)	large lung metastases ([4]; one bolus, 10 days)	reduction in lung colonies with respect to buffer-treated ([8]; 0.01 mg/ml-treated animals)	suppression of melanoma colonies ([8]; 1 mg/ml treated animals)	stability toward oxidation [9]
CSVTCG (cysteine pairing not given here)	significantly decreased metastases	fewer and smaller intraperitoneal tumors	1/5*	0/5	86%	0.14	86%	half as well as fibronectin and TSP-1	inhibit collagen-induced platelet aggregation	inhibited angiogenesis	identical blocking activity	significantly blocked	–	–	–	–	–	–	–	–
[dC]SVTCG (cysteine pairing not given here)	–	–	–	–	–	–	–	did not promote adhesion	–	–	–	–	no effect	no effect	no effect	–	–	–	–	–
C(Acm)SVTC(Acm)G	–	–	–	–	–	–	–	half as well as fibronectin and TSP-1	–	–	identical blocking activity	–	–	–	same dose-dependent inhibition	80%	few large lung metastases	27%	more than 80%	more stable toward oxidation
